Test results taken from patent US11573241B2, “Total cellular iron as a marker of cancer stem cells and uses thereof” (Institut National de la Sante et de la Recherche Medicale …, priority 2016, dated 2023).
Where a SMILES comes first, the peptide text is derived from it. The star is where a group is joined. Cbz = O=C(OCc1ccccc1)*; CH2F = FC*

Key:
[1] = test system: HMLER CD24^low cells; assay: Immunoblotting of iron homeostasis regulatory proteins; assay type: cell-based, human; conditions: 24 h
[2] = test system: patient-derived xenografts (PDX 1 and 2); assay type: in vivo, NOD/SCID mice; conditions: intra-peritoneal, 4 weeks
Source text: Patient derived xenografts (PDXs). PDXs were established as previously described in Charafe-Jauffret et al., Cancer Res. 73, 7290-7300 (2013) from tissue samples collected prospectively at the Institut Paoli-Calmettes (IPC). Samples of human origin and associated data were obtained from the IPC/CRCM Tumor Bank that operates under authorization #AC-2007-33 granted by the French Ministry of Higher Education and Research. Before scientific use of samples and data, patients were appropriately informed and asked to consent in writing, in compliance with French and European regulations. The project was approved by the IPC Institutional Review Board. Cells from 2 different patient-derived xenografts (PDX 1 and 2) were transplanted orthotopically into fat pads of 4-week-old female non-obese diabetic/severe combined immunodeficient (NOD/SCID) mice (NOD.CB17-Prkdcscid/J, Charles River France) after mechanical treatment and enzymatic digestion using collagenase/hyaluronidase (StemCell Technologies) to generate single-cell suspension suitable for implantation in vivo. PDXs were primarily established as previously described in Caraft-Jauffret et al., and evaluated for ALDEFLUOR-positive CSCs. We injected single cancer cells into fat pads of NOD/SCID mice and monitored tumor growth. When tumor size reached approximately 150 mm^3, Sal and AM5 treatments were performed as indicated above for FIGS. 14 and 15. Tumor growth was compared with that of docetaxel and placebo-treated controls. After 4 weeks of treatment, the animals were sacrificed and the proportion of ALDEFLUOR-positive CSCs was measured in each residual tumor. All animal studies were approved by the French Ministry of Higher Education and Research (authorization number D130554) and ethical committee (number 14), of Aix-Marseille Université. No randomization was used and experimenters were blinded to drug treatments and tissue analyses.
Aldefluor assay. The analysis was processed on single-cell suspension from the PDXs obtained as described above. The ALDEFLUOR Kit (Stemcell™ Technologies) was used to isolate the population with high aldehyde dehydrogenase enzymatic activity using an LSR2 cytometer (Becton Dickinson Biosciences), as previously described in Charafe-Jauffret et al. To eliminate cells of mouse origin from the PDXs, we used staining with an anti-H2Kd antibody (BD Biosciences, 1:200, 20 min on ice) followed by staining with a secondary antibody labeled with phycoerythrin (PE; Jackson Laboratories, 1:250, 20 min on ice).

[3] = test system: cells from treated PDX 1 and 2; assay: Limiting dilution assay, tumor-seeding capacity (ELDA); assay type: in vivo, NOD/SCID mice; conditions: re-implantation into secondary mice
Source text: Limiting dilution assay. Cells from 4-week treated mice were re-implanted into one to four secondary NOD/SCID mice with injection of 10, 50, 500 or 5000 cells for each treated tumor to functionally evaluate the proportion of residual CSCs in each treatment group (Unt., Doc, Sal, AM5) for the PDX 1 and 2. Each mouse that developed a tumor reaching a size of 10 mm was considered as a tumor-bearing mouse.
Estimation of number of CSCs in vivo. The number of mammary gland outgrowths obtained in a fat pad after cell re-implantation is currently used to evaluate the number of stem cells able to repopulate this fat pad. It is based on self-renewal and differentiation abilities, two hallmarks of stem cells. In the same manner, estimation of the number of CSCs can be obtained from tumor outgrowth data collected after limited dilution re-implantation of each group of treatments, based on tumor-initiating capacities of CSCs. For calculation, an online tool is available using Extreme Limiting Dilution Analysis (ELDA) (http://bioinf.wehi.edu.au/software/elda/) for limiting dilution analysis based on the Poisson single-hit model according to the number of outgrowths observed and the number of pat pad re-implanted for each cell dilution.

[4] = test system: HMLER CD24^low cells; assay: Annexin V/PI assay; assay type: cell-based, human; conditions: 48 h
Procedure: (§1) Annexin V/PI assay. Cells were treated as indicated. After treatment, cell death was quantified using Annexin V-FITC/Propidium Iodide (PI) assay according to the manufacturer's protocol (FITC Annexin V Apoptosis Detection Kit II, 556570, BD Pharmingen™) and analyzed by a LSRFortessa™ flow cytometer (BD Bioscience, San Jose, Calif.). The data were processed using Cell Quest software (BD Biosciences).

[5] = test system: iCSCL-10A2 cells; assay: Annexin V/PI assay; assay type: cell-based; conditions: Sal or AM5 0.5 μM, 72 h
Procedure: as §1

[6] = test system: HMLER cells; assay: Flow cytometry of CD44 and CD24 expression after TGF beta; assay type: cell-based, human
Procedure: FIG. 11. […] Briefly, HMLER cells were treated as indicated with TGF beta in the presence or absence of transferrin. CD44 and CD24 expression were assessed by flow cytometry. CD44^+ indicates the percent of CD44^high/CD24^Low/− population gated.

[7] = test system: MCF-7 cells; assay: Flow cytometry of CD44 and CD24 expression after OSM; assay type: cell-based, human; conditions: OSM 100 ng/ml, 48 h
Procedure: FIG. 8. Knock down of ferritin expression interferes with the OSM-mediated induction of CD44^highCD24^low/− in MCF-7 cells. MCF-7 were transfected with siRNA control or siRNA specifically targeting ferritin mRNA (FTH1) during 48 h and then the cells were incubated with OSM (100 ng/ml) for 48 h. a. Analysis of CD44 and CD24 expression by flow cytometry. Left panel, CSC indicates the percent of CD44^high/CD24^Low or negative (Low/−) population gated. Right panels, histogram representations of CD44 or CD24 expression (dark grey), or by the isotype control (light grey). b. Graphs representing the percent mean of CD44^high/CD24^Low/− population gated. c. Graphs representing the mean fluorescence intensity (IF) of CD24 and CD44, respectively. d. Quantification of the ALDH+ population in MCF-7 cells treated as indicated above, and measured by flow cytometry. Bars and error bars correspond to mean values and s.d. of two biological replicates, respectively. **P<0.01, ns, not significant, Student's t-test.
Small interfering RNA transfection. Suitable small interfering RNAs (siRNA) were designed with the Qiagen RNA interference designer tool for specific down-regulation of FTH1. The sequence used for FTH1 was 5′-[…]-3′ (S100300251) targeting the sequence following 5′-[…]-3′ and a negative control siRNA for FTH1 (5′-[…]-3′, (S103089212). Subconfluent cells were transfected with siRNA in Opti-MEM using the Oligofectamine™ reagent (Invitrogen) for 48 h. Then, cells were treated with OSM (100 ng/mL for 48 h) prior to protein or RNA extraction and flow cytometry analysis for markers as indicated.

[8] = test system: MCF-7 cells; assay: Immunoblotting of EMT markers and ferritin after OSM; assay type: cell-based, human; conditions: OSM 100 ng/ml
Procedure: FIG. 7. Knock down of ferritin expression interferes with the OSM-mediated induction of EMT in MCF-7 cells. left, Immunoblotting showing levels of EMT markers in MCF-7 cells treated or not with 100 ng/ml of OSM for 72 h. right Immunoblotting showing levels of ferritin and fibronectin proteins in MCF-7 cells transfected with siRNA control (scramble) or siRNA targeting specifically ferritin mRNA (FTH1) during 48 h and then the cells were incubated with OSM (100 ng/ml) for 48 h. Beta-tubulin is used as loading control. MCF-7 were transfected.
Immunoblotting. Cells were treated as indicated, then washed twice with PBS and lysed with 2× Laemmli buffer. Cell extracts were heated at 95° C. for 5 min, sheared through a 26-gauge needle and quantified with a Nanodrop 2000 (Thermo Scientific). Protein lysates (˜100 μg) were resolved by SDS-PAGE electrophoresis and transferred onto PVDF membranes (Amersham). Membranes were blocked with 5% BSA, 0.1% Tween-20/TBS for 1 h. The blots were then probed with the relevant primary antibodies in 5% BSA, 0.1% Tween-20/TBS at 4° C. overnight with gentle agitation. Membranes were washed with 0.1% Tween-20/TBS for 30 min and were incubated with secondary antibodies for 1 h at RT. Antigens were detected by ECL (Amersham). Imaging was performed using a ChemiDoc™ XRS+ System (Biorad).

## CCCNC(=O)[C@H]1O[C@@H]1C(=O)N[C@H](C(=O)N1CCC[C@H]1C(=O)O)[C@@H](C)CC [CA-074]
[1]
  ferritin degradation under AM5, cathepsin B inhibition: degradation was prevented

## CC(=O)O[C@@]12CO[C@@H]1C[C@H](O)[C@@]1(C)C(=O)[C@H](O)C3=C(C)[C@@H](OC(=O)[C@H](O)[C@@H](NC(=O)OC(C)(C)C)c4ccccc4)C[C@@](O)([C@@H](OC(=O)c4ccccc4)[C@H]21)C3(C)C [Doc, docetaxel, reference compound]
[2]
  tumor growth: less effective
[3]
  tumor-seeding capacity of tumor cells treated in vivo: lower response than treatment with either AM5 or AM5+Doc

## CC(=O)N[C@@H](CS)C(=O)O [NAC, N-acetyl-L-cysteine]
[4]
  effect of co-treatment on cell death induced by Sal and AM5: partly prevented Sal and AM5 from killing these cells

## COC(=O)C[C@H](NC(=O)[C@H](C)NC(=O)[C@@H](NC(=O)OCc1ccccc1)C(C)C)C(=O)CF [Z-VAD-FMK] (Cbz-Val-Ala-Asp(OMe)-CH2F)
[5]
  effect of inhibitor on cell death induced by Sal or AM5: no effect on the cell death profiles

## CCOC(=O)c1ccc(NC2CCCCC2)c(N)c1 [ferrostatin-1]
[5]
  effect of inhibitor on cell death induced by Sal or AM5: partially prevented

## CN1C(=O)C(Cc2c[nH]c3ccccc23)NC1=S (centres unmarked) [necrostatin-1]
[5]
  effect of inhibitor on cell death induced by Sal or AM5: no effect on the cell death profiles

## TGF-31: cytokine that increases the CD44^high/CD24^Low/− population in HMLER cells
[6]
  percent of CD44^high/CD24^Low/− population: 21%

## Transferrin: iron carrier protein taken up via transferrin receptor
[6]; with TGF beta
  effect on TGF-beta-mediated induction of CD44^highCD24^Low/−: potentiates the TGF-beta-mediated induction

B1: OSM: cytokine oncostatin M, implicated in inducing EMT (protein, UniProt P13725 26-221, looked up)
Oncostatin-M: AAIGSCSKEYRVLLGQLQKQTDLMQDTSRLLDPYIRIQGLDVPKLREHCRERPGAFPSEETLRGLGRRGFLQTLNATLGCVLHRLADLEQRLPKAQDLERSGLNIEDLEKLQMARPNILGLRNNIYCMAQLLDNSDTAEPTKAGRGASQPPTPTPASDAFQRKLEGCRFLHGYHRFMHSVGRVFSKWGESPNRSRR
[7]
  % of CD24^high population: remains unchanged
  % of CD44^high population: 76%
  % of CD44^highCD24^Low/− CSC population: 4.84%
[8]
  ferritin protein level: increase in ferritin protein level
[8]; 72 h
  EMT marker protein levels: increase of two EMT markers Fibronectin and Snail, and the decrease of E-cad protein levels
